How the values were obtained:
[1] = Oral bioavailability in rat; type: ADME, organism-based; conditions: in vivo
[2] = Plasma clearance in rats; type: ADME, organism-based; conditions: rat, read-out: Clp
[3] = Half life in rats; type: ADME, organism-based; conditions: rat, in vivo
[4] = Oral bioavailability (F) in dogs; type: ADME, organism-based, Canis lupus familiaris; conditions: dog, in vivo
Mus musculus = species on record: Mus musculus; assay: Compound (3 mpk) was tested for reduction in glucose excursion in mice by using oral glucose tolerance test (OGTT) after 1 hour; type: functional
[5] = Half life in dogs; type: ADME, organism-based, Canis lupus familiaris; conditions: dog, in vivo
[6] = Clearance in dogs; type: ADME, organism-based, Canis lupus familiaris; conditions: dog, in vivo
Dipeptidyl peptidase 4 = Dipeptidyl peptidase 4 (Homo sapiens, UniProt P27487)
Dipeptidyl peptidase 2 = Dipeptidyl peptidase 2 (Homo sapiens, UniProt Q9UHL4); assay: Inhibitory activity against quiescent cell prolyl peptidase (QPP).
[7] = target: Voltage-gated inwardly rectifying potassium channel KCNH2 (Homo sapiens, UniProt Q12809); assay: Binding affinity for Potassium channel HERG Kv11.1
Sequence of Voltage-gated inwardly rectifying potassium channel KCNH2 (Q12809 whole entry): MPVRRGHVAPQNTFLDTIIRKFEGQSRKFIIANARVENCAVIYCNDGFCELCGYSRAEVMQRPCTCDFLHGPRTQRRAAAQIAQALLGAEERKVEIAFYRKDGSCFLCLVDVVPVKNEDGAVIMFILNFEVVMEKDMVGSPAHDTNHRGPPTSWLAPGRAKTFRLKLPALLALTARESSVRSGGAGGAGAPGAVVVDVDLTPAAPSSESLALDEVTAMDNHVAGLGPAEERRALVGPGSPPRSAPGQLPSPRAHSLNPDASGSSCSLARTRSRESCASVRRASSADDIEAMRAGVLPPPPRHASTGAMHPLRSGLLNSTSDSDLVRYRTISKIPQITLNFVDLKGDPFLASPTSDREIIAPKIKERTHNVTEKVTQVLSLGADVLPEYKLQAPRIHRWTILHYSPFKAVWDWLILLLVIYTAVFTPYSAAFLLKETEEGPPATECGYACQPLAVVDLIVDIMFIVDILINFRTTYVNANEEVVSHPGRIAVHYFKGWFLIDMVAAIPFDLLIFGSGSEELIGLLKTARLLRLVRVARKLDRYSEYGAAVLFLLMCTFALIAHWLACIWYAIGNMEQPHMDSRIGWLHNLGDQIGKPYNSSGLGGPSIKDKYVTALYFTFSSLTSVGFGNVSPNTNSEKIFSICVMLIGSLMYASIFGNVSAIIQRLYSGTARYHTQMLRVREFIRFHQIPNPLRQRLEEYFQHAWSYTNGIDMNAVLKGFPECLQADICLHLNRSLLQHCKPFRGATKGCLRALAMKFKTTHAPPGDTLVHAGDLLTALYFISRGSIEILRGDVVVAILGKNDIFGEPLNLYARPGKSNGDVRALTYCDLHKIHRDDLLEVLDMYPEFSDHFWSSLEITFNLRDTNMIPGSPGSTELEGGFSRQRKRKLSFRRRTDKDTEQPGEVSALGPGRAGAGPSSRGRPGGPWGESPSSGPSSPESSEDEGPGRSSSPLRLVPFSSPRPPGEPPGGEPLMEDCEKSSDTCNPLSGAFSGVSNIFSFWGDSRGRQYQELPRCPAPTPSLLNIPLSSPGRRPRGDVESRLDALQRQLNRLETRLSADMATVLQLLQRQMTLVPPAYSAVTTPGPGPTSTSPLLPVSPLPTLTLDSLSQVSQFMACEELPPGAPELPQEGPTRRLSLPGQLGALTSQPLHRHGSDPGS

Sequence of Dipeptidyl peptidase 4 (P27487 whole entry): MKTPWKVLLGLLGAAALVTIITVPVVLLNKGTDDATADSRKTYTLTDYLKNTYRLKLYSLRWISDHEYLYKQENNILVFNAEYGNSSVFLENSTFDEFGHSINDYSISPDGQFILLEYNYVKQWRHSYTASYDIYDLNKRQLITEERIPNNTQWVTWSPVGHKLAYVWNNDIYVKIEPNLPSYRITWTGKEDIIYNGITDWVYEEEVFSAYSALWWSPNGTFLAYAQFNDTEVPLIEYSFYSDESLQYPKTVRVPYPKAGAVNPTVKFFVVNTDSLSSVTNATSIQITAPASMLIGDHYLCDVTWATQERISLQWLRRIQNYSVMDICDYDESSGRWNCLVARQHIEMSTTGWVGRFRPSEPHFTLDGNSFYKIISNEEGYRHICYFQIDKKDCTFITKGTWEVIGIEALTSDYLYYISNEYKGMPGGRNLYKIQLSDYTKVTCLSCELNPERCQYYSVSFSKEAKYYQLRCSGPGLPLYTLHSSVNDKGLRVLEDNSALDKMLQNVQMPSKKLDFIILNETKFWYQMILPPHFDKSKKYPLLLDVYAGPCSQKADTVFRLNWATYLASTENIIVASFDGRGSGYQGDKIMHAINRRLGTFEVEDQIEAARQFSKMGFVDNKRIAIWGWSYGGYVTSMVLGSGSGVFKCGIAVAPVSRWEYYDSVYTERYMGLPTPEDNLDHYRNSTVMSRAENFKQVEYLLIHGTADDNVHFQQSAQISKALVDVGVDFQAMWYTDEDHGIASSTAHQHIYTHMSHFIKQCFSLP

| SMILES | bioavailability [1] [%] | clearance [2] [L/h/kg] | half-life [3] [h] | IC50 (Dipeptidyl peptidase 4) [µM] | IC50 (Dipeptidyl peptidase 2) [µM] | also measured |
| --- | --- | --- | --- | --- | --- | --- |
| N[C@H](C(=O)N1CCCC1)[C@H]1CC[C@H](NC(=O)OCc2ccccc2)CC1 | 52 | 1.68 | 4 |  |  |  |
| N[C@H](C(=O)N1CCCC1)[C@H]1CC[C@H](NS(=O)(=O)c2ccc(OC(F)(F)F)cc2)CC1 | 38 | 1.86 | 3.6 |  |  |  |
| N[C@H](C(=O)N1CCSC1)[C@H]1CC[C@H](NS(=O)(=O)c2ccc(OC(F)(F)F)cc2)CC1 | 85 | 1.26 | 4.7 |  |  |  |
| N[C@H](C(=O)N1CCCC1)[C@H]1CC[C@H](NS(=O)(=O)c2ccc(F)cc2F)CC1 | 36 | 3.18 | 1.8 |  |  | bioavailability [4]: 100%; Reduction (Mus musculus): 36%; half-life [5]: 6 h; clearance [6]: 0.84 L/h/kg |
| N[C@H](C(=O)N1CCSC1)[C@H]1CC[C@H](NS(=O)(=O)c2ccc(I)cc2)CC1 |  |  |  | 0.023 | 0.28 |  |
| N#Cc1cccc(S(=O)(=O)N[C@H]2CC[C@H]([C@H](N)C(=O)N3CCSC3)CC2)c1 |  |  |  | 0.024 | 0.82 |  |
| CN(C)C(=O)Nc1ccc(S(=O)(=O)N[C@H]2CC[C@H]([C@H](N)C(=O)N3CCSC3)CC2)cc1 |  |  |  | 0.0075 | 2 |  |
| CN(C)C(=O)Nc1ccc(S(=O)(=O)N[C@H]2CC[C@H]([C@H](N)C(=O)N3CCCC3)CC2)cc1 | 1 | 1.26 | 2.4 | 0.026 | 12 |  |
| N[C@H](C(=O)N1CCCC1)[C@H]1CC[C@H](NS(=O)(=O)c2ccc(F)c(F)c2F)CC1 |  |  |  | 0.098 | 8.2 |  |
| N[C@H](C(=O)N1CCSC1)[C@H]1CC[C@H](NS(=O)(=O)c2ccc(F)c(F)c2F)CC1 |  |  |  | 0.024 | 0.96 |  |
| N[C@H](C(=O)N1CCSC1)[C@H]1CC[C@H](N)CC1 |  |  |  | 2.7 |  |  |
| N[C@H](C(=O)N1CCCC1)[C@H]1CC[C@H](NS(=O)(=O)c2ccc(NS(=O)(=O)CC(F)(F)F)cc2)CC1 | 0 | 5.7 | 0.1 |  | 15 | Ki [7]: > 100 µM |
| N#Cc1ccc(NCCNCC(=O)N2CCC[C@H]2C#N)nc1 |  |  |  |  | 6.6 |  |

The next lines start with results.

| bioavailability [1] [%] | clearance [2] [L/h/kg] | half-life [3] [h] | IC50 (Dipeptidyl peptidase 4) [µM] | IC50 (Dipeptidyl peptidase 2) [µM] | SMILES | also measured |
| --- | --- | --- | --- | --- | --- | --- |
| 81 | 1.8 | 2 |  |  | N[C@H](C(=O)N1CCSC1)[C@H]1CC[C@H](NC(=O)c2ccc(F)c(F)c2)CC1 |  |
|  |  |  | 0.035 | 0.38 | N[C@H](C(=O)N1CCSC1)[C@H]1CC[C@H](NC(=O)Nc2ccc(F)c(F)c2)CC1 |  |
|  |  |  | 0.018 | 0.17 | N[C@H](C(=O)N1CCSC1)[C@H]1CC[C@H](NS(=O)(=O)c2ccc3ccccc3c2)CC1 |  |
| 30 | 0.78 | 2.3 | 0.046 | 8.6 | N[C@H](C(=O)N1CCCC1)[C@H]1CC[C@H](NC(=O)c2cccc3ccccc23)CC1 | Ki [7]: 17 µM |
|  |  |  | 0.038 | 0.23 | N[C@H](C(=O)N1CCSC1)[C@H]1CC[C@H](NC(=O)c2ccc(Cl)c(Cl)c2)CC1 |  |
|  |  |  | 0.033 | 0.34 | N[C@H](C(=O)N1CCSC1)[C@H]1CC[C@H](NC(=O)c2ccc(I)cc2)CC1 |  |
|  |  |  | 0.021 | 0.23 | N[C@H](C(=O)N1CCSC1)[C@H]1CC[C@H](NC(=O)c2ccc3ccccc3c2)CC1 |  |
| 51 | 1.32 | 1.2 | 0.015 | 0.9 | N[C@H](C(=O)N1CCSC1)[C@H]1CC[C@H](NC(=O)c2cccc3ccccc23)CC1 | Ki [7]: 22 µM |
|  |  |  | 0.029 | 0.17 | N[C@H](C(=O)N1CCSC1)[C@H]1CC[C@H](NC(=O)OCc2ccc(Cl)c(Cl)c2)CC1 |  |
|  |  |  | 0.02 | 0.2 | N[C@H](C(=O)N1CCSC1)[C@H]1CC[C@H](NC(=O)OCc2ccc3ccccc3c2)CC1 |  |
|  |  |  | 0.017 | 0.17 | N[C@H](C(=O)N1CCSC1)[C@H]1CC[C@H](NC(=O)OCc2cccc3ccccc23)CC1 |  |
| 12 | 4.44 | 2.3 | 0.01 | 0.21 | N[C@H](C(=O)N1CCSC1)[C@H]1CC[C@H](NC(=O)Nc2ccc(I)cc2)CC1 | Ki [7]: 1.9 µM |
|  |  |  | 0.017 | 0.17 | N[C@H](C(=O)N1CCSC1)[C@H]1CC[C@H](NC(=O)Nc2ccc(Cl)c(Cl)c2)CC1 |  |
|  |  |  | 0.055 | 0.35 | N[C@H](C(=O)N1CCSC1)[C@H]1CC[C@H](NC(=O)Nc2ccc(OC(F)(F)F)cc2)CC1 |  |
|  |  |  | 0.009 | 0.23 | N[C@H](C(=O)N1CCSC1)[C@H]1CC[C@H](NC(=O)c2cnc3ccccc3c2)CC1 |  |
